# Data published in PMC9550643 (iScience, 2022).
# Where two headings read alike, the source gives them in different places.
# Columns and labels:
# estrogen receptor = conditions: ref Kolle et al., 2010; cited from earlier work
# [1] = molecular target: T1, estrogen receptor-α (ERα) (Homo sapiens, UniProt P03372); assay type: cell-based; conditions: iER-GFP cells, 2 h; mixtures as dilution series, chemicals 1 nM to 100 μM
# T1 sequence (P03372 1-595): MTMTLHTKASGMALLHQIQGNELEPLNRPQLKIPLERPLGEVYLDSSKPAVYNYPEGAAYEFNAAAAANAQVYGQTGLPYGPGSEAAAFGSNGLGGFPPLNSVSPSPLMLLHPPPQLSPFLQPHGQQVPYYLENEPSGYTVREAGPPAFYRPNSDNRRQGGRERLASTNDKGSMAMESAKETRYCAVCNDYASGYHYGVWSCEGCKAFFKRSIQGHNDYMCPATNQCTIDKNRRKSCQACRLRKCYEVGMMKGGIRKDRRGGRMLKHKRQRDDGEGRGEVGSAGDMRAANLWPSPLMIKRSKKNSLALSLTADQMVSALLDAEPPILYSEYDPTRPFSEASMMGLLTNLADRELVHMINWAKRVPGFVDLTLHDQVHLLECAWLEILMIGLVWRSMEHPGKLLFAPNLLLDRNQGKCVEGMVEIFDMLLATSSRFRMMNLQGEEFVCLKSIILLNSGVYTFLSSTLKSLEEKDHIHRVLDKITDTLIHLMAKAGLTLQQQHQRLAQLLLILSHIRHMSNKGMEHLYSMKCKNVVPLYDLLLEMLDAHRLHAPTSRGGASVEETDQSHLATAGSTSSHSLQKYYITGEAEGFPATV
# [2] = test system: SRC-1, SRC-3, and phosphorylated RNA Pol II (serine 5); experiment: Immunofluorescence of co-activator and RNA Pol II recruitment to the PRL-array; assay type: cell-based, Human; conditions: GFP-ER and iER-GFP cells, 10 nM, 2 h
# dsRed2skl mRNA = assay type: cell-based, Human; conditions: 2 h
smiles,measurement,setting,value
C[C@]12C[C@H](O)[C@H]3[C@@H](CCC4=CC(=O)CC[C@@]43C)[C@@H]1CC[C@@H]2C(=O)CO [Corticosterone],activity in yeast-based estrogenic assays,estrogen receptor,(anti-)estrogenic activity
OC(c1ccc(Cl)cc1)(c1ccc(Cl)cc1)C(Cl)(Cl)Cl [Dicofol],chromatin binding activity (AUC) as share of the activity observed with E2,[1],at least 10%
"C[C@]12CC[C@@H]3c4ccc(O)cc4CC[C@H]3[C@@H]1CC[C@@H]2O [E2, 17β-estradiol]",recruitment of SRC-3 to the PRL-array,[2],strong recruitment
same,"dsRed2skl FISH signal, increase above untreated",dsRed2skl mRNA; GFP-ER cells,3.2 fold
same,maximal induced dsRed2skl FISH signal,dsRed2skl mRNA; GFP-ER cells,"39,685 ± 2338 IU"
same,"dsRed2skl FISH signal, increase above untreated",dsRed2skl mRNA; iER-GFP cells,11.4 fold
same,maximal induced dsRed2skl FISH signal,dsRed2skl mRNA; iER-GFP cells,"234,008 ± 1329 IU"
same,"dsRed2skl FISH signal, increase above untreated",dsRed2skl mRNA; iGFP-ER cells,5.0 fold
same,maximal induced dsRed2skl FISH signal,dsRed2skl mRNA; iGFP-ER cells,"84,564 ± 628 IU"
COc1ccc(C(c2ccc(OC)cc2)C(Cl)(Cl)Cl)cc1 [Methoxychlor],chromatin binding activity (AUC) as share of the activity observed with E2,[1],at least 10%
CC(=O)[C@H]1CC[C@H]2[C@@H]3CCC4=CC(=O)CC[C@]4(C)[C@H]3CC[C@]12C [Progesterone],activity in yeast-based estrogenic assays,estrogen receptor,(anti-)estrogenic activity
O=S1OCC2C(CO1)C1(Cl)C(Cl)=C(Cl)C2(Cl)C1(Cl)Cl (centres unmarked) [endosulfan],chromatin binding activity (AUC) as share of the activity observed with E2,[1],at least 10%
CCOP(=S)(OCC)SCSP(=S)(OCC)OCC [ethion],chromatin binding activity (AUC) as share of the activity observed with E2,[1],at least 10%
"Clc1ccc(C(c2ccccc2Cl)C(Cl)(Cl)Cl)cc1 (centres unmarked) [o,p'-DDT]",chromatin binding activity (AUC) as share of the activity observed with E2,[1],at least 10%
